In patent publication US8092838B2, “Use of hydrogen sulfide in the treatment of eye diseases” (The University of Houston System, priority 2005, dated 2012):
Read-outs that look alike come from different tables or passages of the source.

Assays:
[1] = test system: isolated porcine iris-ciliary bodies; format: cell-based; conditions: for effect on NaHS-induced inhibition of evoked [3H]NE release: modifier 1 mM, NaHS 1 μM
[2] = test system: isolated porcine iris; assay: Relaxation of carbachol-induced tone in isolated porcine iris muscle strips; format: cell-based
[3] = test system: isolated porcine iris-ciliary body; assay: Norepinephrine concentration in isolated porcine iris-ciliary body (HPLC); format: cell-based; conditions: NaHS 30-300 μM
Excerpt: The data support results obtained from neurotransmitter release studies which show a decrease in norepinephrine output.
To determine the mechanism of action of H2S donors on sympathetic neurotransmitter pools in the anterior uvea, the direct effect of NaHS was studied on catecholamine (norepinephrine, epinephrine and dopamine) concentrations in porcine iris-ciliary bodies using […] Liquid Chromatography techniques. […] Data from this study supports the previous observation that H2S donors can reduce the release of [^3H]NE from isolated porcine irides. It appears that by reducing the availability of the neurotransmitter (norepinephrine), H2S can attenuate sympathetic neurotransmission in porcine anterior uvea.

[4] = test system: normotensive, conscious albino rabbits; assay: Intraocular pressure after topical application in normotensive, conscious albino rabbits (pneumatonometer)
Excerpt: A 1% dose of NaHS was applied topically to one eye and the saline vehicle to the other eye.
The effect of a generator of H2S in biological tissues (NaHS) on intraocular pressure in normotensive, conscious albino rabbits was examined. In the eyes of a rabbit, the desired intraocular pressure is around 20 mm Hg. While in human, the desired intraocular pressure in the eye is in the range of from about 12 mm Hg to 15 mm Hg. Ranges of about 18 to 24 mm Hg in a human eye are generally considered elevated. Two baseline intraocular pressure measurements were made in nine rabbits using a pneumatonometer (Medtronic, Model 30 Classic, Jacksonville, Fla.) at −1, and 0 hour after topical application of proparacaine 0.5%. NaHS (1%, dissolved in sterile saline solution) was applied topically to one eye of each animal while the saline vehicle was administered to the other (control) eyes. Intraocular pressures were measured in both eyes at +0.5, +1, +3, and +6 hours after instillation of the drug and vehicle.

NOCC(=O)O [AOA, aminooxyacetic acid, reference compound]
effect on NaHS-induced inhibition of evoked [3H]NE release [1]: blocked the inhibitory response elicited by NaHS | shift of concentration-response curves to NaHS ([2]; AOA 30 μM): significant (P<0.001) rightward shifts

N#CC[C@H](N)C(=O)O [BCA, β-cyano-L-alanine]
shift of concentration-response curves to NaHS ([2]; modifier 1 mM): shifted concentration-response curves to NaHS to the right

S [NaHS, sodium hydrosulfide]
norepinephrine concentrations in the isolated porcine iris-ciliary body [3]: concentration-dependent decrease | stimulation-evoked [3H]NE release ([1]; 1 μM applied 8 minutes before and during S2): marked inhibition | electrically-evoked [3H]NE overflow ([1]; NaHS 0.1-100 μM): concentration-dependent inhibition | effect on intraocular pressure in the treated eyes ([4]; NaHS 1% in sterile saline, topical, one eye, measured +0.5, +1, +3, +6 hours): time-dependent significant (p<0.001) reduction in intraocular pressure | intraocular pressure in contralateral eyes treated with only the saline vehicle ([4]; NaHS 1% topical to the other eye): parallel (but smaller) decrease in intraocular pressure | hyperemia and/or papillary changes ([4]; NaHS 1% topical, experimental and control eyes, all times tested): No hyperemia and/or papillary changes were observed | time of maximum reduction in intraocular pressure ([4]; NaHS 1% topical, treated eyes): 3 h | intraocular pressure after 6 hours ([4]; NaHS 1% topical, treated eyes, 6 hours): remained depressed | relaxation of tone induced by a submaximal concentration of carbachol ([2]; NaHS 30 nM-100 μM): concentration-related relaxation | relative potency in eliciting relaxation of tone ([2]; NaHS versus Na2S): more potent than Na2S | IC50 ([2]; Sus scrofa, concentration range 30 nM to 300 μM): 7 µM

C#CCC(N)C(=O)O (stereo not shown) [PAG, propargylglycine, reference compound]
effect on NaHS-induced inhibition of evoked [3H]NE release [1]: blocked the inhibitory response elicited by NaHS | shift of concentration-response curves to NaHS ([2]; modifier 1 mM): shifted concentration-response curves to NaHS to the right

C[S+](CC[C@H](N)C(=O)O)C[C@H]1O[C@@H](n2cnc3c(N)ncnc32)[C@H](O)[C@@H]1O (stereo partly drawn) [SAM, S-adenosyl-L-methionine]
effect on relaxations induced by the higher concentration of NaHS [2]: attenuated | shift of NaHS concentration-response curve [2]: significant leftward shift

COc1ccc(Cl)cc1C(=O)NCCc1ccc(S(=O)(=O)NC(=O)NC2CCCCC2)cc1 [glibenclamide]
shift of concentration-response curves to NaHS ([2]; glibenclamide 300 μM): significant rightward shift

sodium sulfide [Na2S]
basal tritium efflux [1]: without affecting basal tritium efflux | electrically-evoked [3H]NE release [1]: concentration-dependent inhibition | IC50 [2]: 70 µM
